Test results as given in patent US8198307B2, “Imidazole derivatives having aryl piperidine substituent, method for preparation thereof and pharmaceutical compositions containing same” (Korea Research Institute of Chemical Technology, priority 2007, dated 2012).

target: T1, MCH R1 (melanine-concentrating hormone receptor-1) (Homo sapiens, UniProt Q99705); assay: Inhibitory effects on MCH R1 binding (Eu-MCH time-resolved fluorescence binding assay); conditions: concentration inhibiting the binding of MCH (Eu-MCH, 2 nM) to MCH R1 by 50% in vitro; TRF readout; test range 1 nM to 10 μM; read-out: IC50
T1 construct: purchased Euroscreen, Gosselies, Belgium
Procedure, shortened: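 Receptor membranes were incubated 90 min at room temperature with 2 nM Eu-MCH and test compound (1 nM–10 μM final) in 25 mM HEPES pH 7.4, 5 mM MgCl2, 1 mM CaCl2, 0.5% BSA, then filter-washed. Nonspecific binding was defined with 0.5 μM MCH. Time-resolved fluorescence (ex 340/em 615 nm) gave percent inhibition of specific binding.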

T1 sequence (Q99705 whole entry, species assumed): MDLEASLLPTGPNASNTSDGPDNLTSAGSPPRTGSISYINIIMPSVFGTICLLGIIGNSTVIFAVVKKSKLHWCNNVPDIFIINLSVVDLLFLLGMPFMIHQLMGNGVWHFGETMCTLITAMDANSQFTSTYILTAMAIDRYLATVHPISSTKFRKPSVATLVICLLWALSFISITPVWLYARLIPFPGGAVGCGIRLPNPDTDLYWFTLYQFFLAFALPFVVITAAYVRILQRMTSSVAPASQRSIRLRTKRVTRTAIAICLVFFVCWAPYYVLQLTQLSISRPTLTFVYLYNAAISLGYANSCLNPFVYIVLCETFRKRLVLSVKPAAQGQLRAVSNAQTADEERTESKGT

Compound	IC50 [nM]
CC(=O)Nc1cccc(C2CCN(CCCn3c(-c4cccc(C(N)=O)c4)nc4ccccc43)CC2)c1 [Example 62, 2-(3-carbamoylphenyl)-1-{3-[4-(3-acetylaminophenyl)piperidin-1-yl]propyl}-1H-benzimidazole]	11
CC(=O)Nc1cccc(C2CCN(CCCn3c(-c4ccc(Cl)cc4F)nc4ccccc43)CC2)c1 [Example 53, 2-(4-chloro-2-fluorophenyl)-1-{3-[4-(3-acetylaminophenyl)piperidin-1-yl]propyl}-1H-benzimidazole]	1
CCCCc1nc2c(C)c(-c3ccccc3)c(C)nc2n1CCCN1CCC(c2cccc(NC(C)=O)c2)CC1 [Example 96, 2-butyl-5,7-dimethyl-6-phenyl-3-{3-[4-(3-acetylaminophenyl)piperidin-1-yl]propyl}-3H-imidazo[4,5-b]pyridine]	60
CC(=O)Nc1cccc(C2CCN(CCCCCn3c(-c4ccccc4)nc4ccccc43)CC2)c1 [Example 7, 2-phenyl-1-{5-[4-(3-acetylaminophenyl)piperidin-1-yl]pentyl}-1H-benzimidazole]	74
COc1ccc2c(c1)nc(-c1ccco1)n2CCCN1CCC(c2cccc(NC(C)=O)c2)CC1 [Example 119, 2-(furan-2-yl)-5-methoxy-1-{3-[4-(3-acetamidophenyl)piperidin-1-yl]propyl}-1H-benzimidazole]	249
Cc1nc2ccccc2n1CCCN1CCC(c2cccc(NC(=O)C(C)C)c2)CC1 [Example 90, 2-methyl-1-{3-[4-(3-isobutyrylaminophenyl)piperidin-1-yl]propyl}-1H-benzimidazole]	80
CC(=O)Nc1cccc(C2CCN(CCCn3c(-c4ccc(Cl)cc4)nc4ccc(Br)cc43)CC2)c1 [Example 36, 2-(4-chlorophenyl)-1-{3-[4-(3-acetylaminophenyl)piperidin-1-yl]propyl}-6-bromo-1H-benzimidazole]	17
CC(=O)Nc1cccc(C2CCN(CCCn3c(-c4cccc(Cl)c4)nc4cc(C)c(C)cc43)CC2)c1 [Example 38, 2-(3-chlorophenyl)-1-{3-[4-(3-acetylaminophenyl)piperidin-1-yl]propyl}-5,6-dimethyl-1H-benzimidazole]	3
CC(C)C(=O)Nc1cccc(C2CCN(CCCn3c(-c4ccc(Cl)cc4)nc4ccccc43)CC2)c1 [Example 64, 2-(4-chlorophenyl)-1-{3-[4-(3-isobutyrylaminophenyl)piperidin-1-yl]propyl}-1H-benzimidazole]	5
CC(=O)Nc1cccc(C2CCN(CCCn3c(-c4ccc(C(C)C)cc4)nc4ccccc43)CC2)c1 [Example 20, 2-(4-isopropylphenyl)-1-{3-[4-(3-acetylaminophenyl)piperidin-1-yl]propyl}-1H-benzimidazole]	19
CC(=O)Nc1cccc(C2CCN(CCn3c(-c4ccccc4)nc4ccccc43)CC2)c1 [Example 1, 2-phenyl-1-{2-[4-(3-acetylaminophenyl)piperidin-1-yl]ethyl}-1H-benzimidazole]	> 10000
CC(=O)Nc1cccc(C2CCN(CCCn3c(-c4ccccc4Cl)nc4cc(C)c(C)cc43)CC2)c1 [Example 37, 2-(2-chlorophenyl)-1-{3-[4-(3-acetylaminophenyl)piperidin-1-yl]propyl}-5,6-dimethyl-1H-benzimidazole]	39
CC(=O)Nc1cccc(C2CCN(CCCn3c(-c4ccc(Cl)cc4)nc4ccccc43)CC2)c1 [Example 4, 2-(4-chlorophenyl)-1-{3-[4-(3-acetylaminophenyl)piperidin-1-yl]propyl}-1H-benzimidazole]	1
CCCCc1nc2c(C)cc(C)nc2n1CCCN1CCC(c2cccc(NC(C)=O)c2)CC1 [Example 95, 2-butyl-5,7-dimethyl-3-{3-[4-(3-acetylaminophenyl)piperidin-1-yl]propyl}-3H-imidazo[4,5-b]pyridine]	90
CC(=O)Nc1cccc(C2CCN(CCCn3c(-c4ccccc4)nc4ccc(F)cc43)CC2)c1 [Example 26, 2-phenyl-1-{3-[4-(3-acetylaminophenyl)piperidin-1-yl]propyl}-6-fluoro-1H-benzimidazole]	7
CC(=O)Nc1cccc(C2CCN(CCCn3c(-c4ccccc4)nc4ccc(C)nc43)CC2)c1 [Example 69, 5-methyl-2-phenyl-3-{3-[4-(3-acetylaminophenyl)piperidin-1-yl]propyl}-3H-imidazo[4,5-b]pyridine]	22
CC(=O)Nc1cccc(C2CCN(CCCn3c(-c4ccc(Cl)cc4)nc4ccc(C(N)=O)cc43)CC2)c1 [Example 61, 2-(4-chlorophenyl)-1-{3-[4-(3-acetylaminophenyl)piperidin-1-yl]propyl}-6-carbamoyl-1H-benzimidazole]	199
CC(=O)Nc1cccc(C2CCN(CCCn3c(-c4ccc5c(c4)OCO5)nc4ccccc43)CC2)c1 [Example 70, 2-(benzo[1,3]dioxol-5-yl)-1-{3-[4-(3-acetylaminophenyl)piperidin-1-yl]propyl}-1H-benzimidazole]	12
CC(=O)Nc1cccc(C2CCN(CCCn3c(-c4cccc([N+](=O)[O-])c4)nc4ccccc43)CC2)c1 [Example 55, 2-(3-nitrophenyl)-1-{3-[4-(3-acetylaminophenyl)piperidin-1-yl]propyl}-1H-benzimidazole]	8

Results, then the molecule that gave them:

IC50 [nM]	Compound
3	CC(=O)Nc1cccc(C2CCN(CCCn3c(-c4ocnc4C)nc4ccccc43)CC2)c1 [Example 123, 2-(4-methyloxazol-5-yl)-1-{3-[4-(3-acetamidophenyl)piperidin-1-yl]propyl}-1H-benzimidazole]
8	CC(=O)Nc1cccc(C2CCN(CCCn3c(-c4ccc(Cl)cc4)nc4cc(C(N)=O)ccc43)CC2)c1 [Example 60, 2-(4-chlorophenyl)-1-{3-[4-(3-acetylaminophenyl)piperidin-1-yl]propyl}-5-carbamoyl-1H-benzimidazole]
2	CC(=O)Nc1cccc(C2CCN(CCCn3c(-c4ccccc4)nc4ccccc43)CC2)c1 [Example 3, 2-phenyl-1-{3-[4-(3-acetylaminophenyl)piperidin-1-yl]propyl}-1H-benzimidazole]
> 10000	CC(=O)Nc1cccc(C2CCN(CCCn3c(C)nc4ccccc43)CC2)c1 [Example 88, 2-methyl-1-{3-[4-(3-acetylaminophenyl)piperidin-1-yl]propyl}-1H-benzimidazole]
11	COc1ccc2nc(-c3ccccc3)n(CCCN3CCC(c4cccc(NC(C)=O)c4)CC3)c2c1 [Example 27, 2-phenyl-1-{3-[4-(3-acetylaminophenyl)piperidin-1-yl]propyl}-6-methoxy-1H-benzimidazole]
94	CC(=O)Nc1cccc(C2CCN(CCCn3c(-c4ccccc4O)nc4ccccc43)CC2)c1 [Example 63, 2-(2-hydroxyphenyl)-1-{3-[4-(3-acetylaminophenyl)piperidin-1-yl]propyl}-1H-benzimidazole]
20	CC(=O)Nc1cccc(C2CCN(CCCn3c(-c4cccc(C)c4)nc4ccccc43)CC2)c1 [Example 79, 2-(m-tolyl)-1-{3-[4-(3-acetylaminophenyl)piperidin-1-yl]propyl}-1H-benzimidazole]
2	CC(=O)Nc1cccc(C2CCN(CCCn3c(Cc4ccccn4)nc4ccccc43)CC2)c1 [Example 125, 2-(pyridin-2-ylmethyl)-1-{3-[4-(3-acetamidophenyl)piperidin-1-yl]propyl}-1H-benzimidazole]
40	CCCCc1nc2c(C)cc(C)nc2n1CCCN1CCC(c2cccc(NC(=O)C(C)C)c2)CC1 [Example 99, 2-butyl-5,7-dimethyl-3-{3-[4-(3-isobutyrylaminophenyl)piperidin-1-yl]propyl}-3H-imidazo[4,5-b]pyridine]
1	CC(=O)Nc1cccc(C2CCN(CCCn3c(-c4ccsc4)nc4cc(C)ccc43)CC2)c1 [Example 120, 5-methyl-2-(thiophen-3-yl)-1-{3-[4-(3-acetamidophenyl)piperidin-1-yl]propyl}-1H-benzimidazole]
37	CC(=O)Nc1cccc(C2CCN(CCCn3c(-c4ccc([N+](=O)[O-])cc4Cl)nc4ccccc43)CC2)c1 [Example 57, 2-(2-chloro-4-nitrophenyl)-1-{3-[4-(3-acetylaminophenyl)piperidin-1-yl]propyl}-1H-benzimidazole]
60	CCc1ccc(-c2nc3ccccc3n2CCCN2CCC(c3cccc(NC(C)=O)c3)CC2)cc1 [Example 77, 2-(4-ethylphenyl)-1-{3-[4-(3-acetylaminophenyl)piperidin-1-yl]propyl}-1H-benzimidazole]
